From patent US11513109B2, “Biological toxicity test method for evaluating the ecological safety of advanced oxidation processes” (priority 2018, dated 2022)

Test system: Koi (Cyprinus carpio haematopterus)
Test: Koi exposure toxicity test: liver homogenate antioxidative enzyme activity (SOD, CAT, GPx)
Assay type: in vivo
Details: experimental group 1 vs blank group
Protocol: Still further, four groups of identical experimental pools are established in S2. Each group of experimental pools is provided with 3 parallel groups. The size of each experimental pool is unified to 30 L. The water temperature of the experimental pool is 18° C. to 22° C. Each experimental pool is provided with an aerator. The first group of the experimental pools is the waste water control group, the second group is the waste water group, the third group is the tap water control group, and the fourth group is the tap water blank group. The four groups of experimental pools have same conditions except the addition of different water quality. 25 L of raw waste water, experimental waste water, control tap water, and blank tap water are sequentially added to the experimental pool of the waste water control group, the waste water experimental group, the tap water control group, and the […].
Still further, 20 selected Koi are put into each experimental pool in S3 for exposure to poison. The Koi used in the test are those domesticated with tap water and not poisoned by the contaminants. The duration of exposure is 96 h-110 h. During the period of exposure, half water is changed every day with water of same quality to maintain the water quality in a stable condition.
Further, the method in S4 is specifically: the Koi after exposure to poison in each group is dissected and liver is extracted, chopped, and formulated into a homogenate with the liver tissue and physiological saline according to weight (g): volume (mL)=1:9 and the activity of antioxidative enzymes in the homogenate is determined.
Still further, the antioxidative enzyme determined in S4 comprises superoxide dismutase, catalase, and glutathione peroxidase.
Still further, the biological indicators such as the determined enzyme activity described in S4 are determined using a kit, and 5 parallel group assays are set for each sample group.
S1: the waste water to be determined was collected (prepared), […]. […]

OO [H2O2]
produces oxidative stress: oxidative stress on the koi (SOD higher, GPx lower than blank group, not significant) (Example 1, oxidant in UV/H2O2) | oxidative stress on the Koi (SOD higher, GPx lower than blank group, not significant) (Example 3, oxidant in the ozone combined oxidation process) | oxidative stress on the Koi (SOD higher, GPx lower than blank group, not significant) (Example 4, oxidant in the wet oxidation process)
